The values below come from US20250049812A1, “Compounds that Inhibit Necroptosis and Their Preparation Methods” (SHANGHAI INSTITUTE OF ORGANIC CHEMISTRY, CHINESE ACADEMY OF …, priority 2021, published 2025).

One data set deals with Jurkat FADD (−/−) Cells. Kind of data set: TNF-α induced necroptosis of Jurkat FADD-deficient cells (CellTiter-Glo cell survival). In kind it is cell-based, human. The essentials: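 Cells in RPMI 1640 with 10% FBS were pretreated for 1 h at 37 °C with compound (12-point threefold series from 25 μM, or 0.5 μM, in triplicate). They were then stimulated with TNFα added as a 5 ng/mL solution for 13 h. Survival was read by luminescence.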
(ATP-based viability assays read luminescence as a measure of living cells.)

Data set [1] in a line: Study of oral pharmacokinetics in rats. The note with it: rat, in vivo, male SD rats, p.o., 5 mg/kg. The method, then:
Healthy male SD rats were used as experimental animals. The intragastric (p.o.) administration was performed, with a dosage of 5 mg/kg or 15 mg/kg. Preparation: the compound was dissolved in a formulation made of 1% tween 80, 1% HMPC, and 98% water. The mixture was ground and shaken until the compound was uniformly distributed with a small particle size, and then 1 equivalent of methanesulfonic acid was added. The intravenous administration was performed with a dosage of 1 mg/kg. Preparation: 5% DMSO, 10% EtOH, 10% sulotol, and 75% physiological saline was added to the compound, and mixed well. Samples were taken at 5 minutes, 15 minutes, 30 minutes, 1 hour, 2 hours, 4 hours, 6 hours, and 8 hours after administration, and then the samples were analyzed using liquid chromatography tandem mass spectrometry (LC-MS/MS).

Setting [2] is: Homo sapiens, TNF-α induced necroptosis, Jurkat FADD-deficient cells, 13 hours, CellTiter-Glo, read-out: IC50.

pIC50: −log10 of the molar value. Where two headings read alike, the source gives them in different places.

For the molecule `CN1C(=O)C(NC(=O)c2nnc(Cc3ccccc3)[nH]2)Cc2cn(-c3ncccc3C(F)(F)F)c3cccc1c23` (racemic) [T-40, (±)-5-benzyl-N-(1-methyl-2-oxo-6-(3-(trifluoromethyl)pyridin-2-yl)-2,3,4,6-tetrahydro-1H-azacyclo [4,3,2-cd]indol-3-yl)-4H-1,2,4-triazole-3-carboxamide], the pIC50 (usually the negative decadic logarithm of the IC50, by convention in mol/L) with Jurkat FADD (−/−) Cells (setting [2]) was more than 8.00. Further, in data set [1], the Cmax (as a rule, the peak of the concentration-time curve) turned out to be 2230 ng/mL; the Tmax – broadly, the time from dosing to the highest level – was 1 h; the half-life (as a rule, how long it takes for the measured level to halve) is 3.26 h. Also, the bioavailability (in general, dose-corrected exposure relative to a reference, in per cent) in data set [1] (i.v. 1 mg/kg) was 31.4%. The AUC(0-t) in data set [1] (read-out: AUC0-8) was 9040 ng·h/mL.

Consider `CN1C(=O)C(NC(=O)c2nnc(Cc3ccccc3)[nH]2)Cn2c(C(=O)O)cc3cccc1c32` (racemic) [T-13, (±)-3-(5-benzyl-4H-1,2,4-triazole-3-carboxamido)-1-methyl-2-oxy-1,2,3,4-tetrahydro-[1,4] diazepino [3,2,1-hi] indole-6-carboxylic Acid], for which the pIC50 in the data set with Jurkat FADD (−/−) Cells (setting [2]) is less than 6.00.

With `CN1C(=O)C(NC(=O)c2nnc(Cc3ccccc3)[nH]2)Cc2cn(CCN3CCOCC3)c3cccc1c23` (racemic) [T-38, (±)-5-benzyl-N-(1-methyl-6-(2-morpholinoethyl)-2-oxo-2,3,4,6-tetrahydro-1H-azacyclo [4,3,2-cd]indol-3-yl)-4H-1,2,4-triazole-3-carboxamide], in the data set on Jurkat FADD (−/−) Cells (Homo sapiens, Jurkat, 13 h), the pIC50 is more than 8.00.

Regarding `CN1C(=O)C(NC(=O)c2nnc(Cc3ccccc3)[nH]2)Cc2c[nH]c3cncc1c23` (racemic) [T-130, (±)-5-benzyl-N-(6-methyl-7-oxo-6,7,8,9-tetrahydro-2H-2,3,6-triazabenzene[cd]azulene-8-yl)-4H-1,2,4-triazol-3-carboxamide], the pIC50 with Jurkat FADD (−/−) Cells (setting [2]) is less than 6.00.

Regarding `CN1C(=O)C(NC(=O)c2nnc(Cc3ccccc3)[nH]2)Cc2cn(-c3ncccc3C3CC3)c3cccc1c23` (racemic) [T-52, (±)-5-benzyl-N-(6-(3-cyclopropylpyridin-2-yl)-1-methyl-2-oxo-2,3,4,6-tetrahydro-1H-azacyclo [4,3,2-cd]indol-3-yl)-4H-1,2,4-triazole-3-carboxamide], the pIC50 with Jurkat FADD (−/−) Cells (setting [2]) is more than 8.00.

Consider `CN1C(=O)C(NC(=O)c2nnc(Cc3ccccc3)[nH]2)Cn2ccc3cc(Cl)cc1c32` (racemic) [T-5, (±)-5-benzyl-N-(9-chloro-1-methyl-2-oxo-1,2,3,4-tetrahydro-[1,4]diazepino [3,2,1-hi]indol-3-yl)-4H-1,2,4-triazole-3-carboxamide], for which, in the data set with Jurkat FADD (−/−) Cells (setting [2]), the negative logarithm of the IC50 (pIC50) was 6.00 to 7.00.

Consider `CN1C(=O)C(NC(=O)c2nnc(Cc3ccccc3)[nH]2)Cc2cn(-c3ncccc3OC(F)F)c3cccc1c23` (racemic) [T-107, (±)-5-benzyl-N-(6-(3-(difluoromethoxy)pyridin-2-yl)-1-methyl-2-oxy-2,3,4,6-tetrahydro-1H-azacyclo [4,3,2-cd]indol-3-yl)-4H-1,2,4-triazole-3-carboxamide], for which, in the data set with Jurkat FADD (−/−) Cells (setting [2]), the pIC50 is more than 8.00.

As for `CN1C(=O)C(NC(=O)c2nnc(Cc3ccccc3)[nH]2)Cc2cn(C(=O)C(C)(C)C)c3cccc1c23` (racemic) [T-39, (±)-5-benzyl-N-(1-methyl-2-oxo-6-pivaloyl-2,3,4,6-tetrahydro-1H-azacyclo [4,3,2-cd]indol-3-yl)-4H-1,2,4-triazole-3-carboxamide], the pIC50 in the data set with Jurkat FADD (−/−) Cells (setting [2]) was 7.00 to 8.00.

For the molecule `CN1C(=O)C(NC(=O)c2nnc(Cc3ccccc3)[nH]2)Cc2cn(C3CC3)c3cccc1c23` (racemic) [T-23, (±)-5-benzyl-N-(6-cyclopropyl-1-methyl-2-oxo-2,3,4,6-tetrahydro-1H-azacyclo [4,3,2-cd]indol-3-yl)-4H-1,2,4-triazole-3-carboxamide], the pIC50 in the data set on Jurkat FADD (−/−) Cells (setting [2]) is 6.00 to 7.00.

For `CN1C(=O)[C@@H](NC(=O)c2nnc(Cc3ccccc3)[nH]2)Cn2cc(-c3cnn(C(F)F)c3)c3cccc1c32` [T-115, (S)-5-benzyl-N-(7-(1-(difluoromethyl)-1H-pyrazol-4-yl)-1-methyl-2-oxo-1,2,3,4-tetrahydro-1,4-diazepine [3,2,1-hi]indol-3-yl)-4H-1,2,4-triazole-3-carboxamide], the pIC50 with Jurkat FADD (−/−) Cells (setting [2]) is 7.00 to 8.00.

Take `CN1C(=O)C(N2CCc3c(nn(Cc4ccccc4)c3Cl)C2=O)Cc2cn(-c3ncccc3C(F)(F)F)c3cccc1c23` (racemic) [T-60, (±)-3-(2-benzyl-3-chloro-7-oxo-2,4,5,7-tetrahydro-6H-pyrazole [3,4-c]pyridin-6-yl)-1-methyl-6(3-(trifluoromethyl)pyridin-2-yl)-1,3,4,6-tetrahydro-2H-azepine [4,3,2-cd] indole-2-one]: in the data set with Jurkat FADD (−/−) Cells (setting [2]), the pIC50 is more than 8.00.

As to `CN1C(=O)C(NC(=O)c2ncc(Cc3ccccc3)o2)Cn2ccc3cccc1c32` (racemic) [T-2, (±)-5-benzyl-N-(1-methyl-2-oxy-1,2,3,4-tetrahydro-[1,4]diazepino [3,2,1-hi]indol-3-yl) oxazole-2-carboxamide], the pIC50 in the data set on Jurkat FADD (−/−) Cells (setting [2]) was more than 8.00.

In the case of “(±)-5-(3-(5-benzyl-4H-1,2,4-triazole-3-carboxamido)-1-methyl-2-oxo-1,2,3,4-tetrahydro-6H-azacyclo [4,3,2-cd] indol-6-yl)oxazole-4-carboxylate [T-98]”, the pIC50 in the data set with Jurkat FADD (−/−) Cells (TNF-α induced necroptosis, Jurkat FADD-deficient cells, 13 hours, CellTiter-Glo, read-out: IC50) is more than 8.00.

Take `COC(=O)Cn1cc2c3c(cccc31)N(C)C(=O)C(NC(=O)c1nnc(Cc3ccccc3)[nH]1)C2` (racemic) [T-29, (±)-methyl2-(3-(5-benzyl-4H-1,2,4-triazole-3-carboxamide)-1-methyl-2-oxo-1,2,3,4-tetrahydro-6H-azacyclo [4,3,2-cd]indol-6-yl)acetate]: the pIC50 in the data set with Jurkat FADD (−/−) Cells (Homo sapiens, Jurkat, 13 h) is more than 8.00.

As for `CN1C(=O)C(NC(=O)c2nnc(Cc3ccccc3)[nH]2)Cn2ccc3cc(Br)cc1c32` (racemic) [T-6, (±)-5-benzyl-N-(9-bromo-1-methyl-2-oxo-1,2,3,4-tetrahydro-[1,4]diazepino [3,2,1-hi]indol-3-yl)-4H-1,2,4-triazole-3-carboxamide], in the data set with Jurkat FADD (−/−) Cells (setting [2]), the pIC50 is 6.00 to 7.00.

Regarding `Cc1cnn(C)c1-c1cn2c3c(cccc13)N(C)C(=O)C(NC(=O)c1nnc(Cc3ccccc3)[nH]1)C2` (centres unmarked) [T-81, 5-benzyl-N-(7-(1,4-dimethyl-1H-pyrazol-5-yl)-1-methyl-2-oxo-1,2,3,4-tetrahydro-[1,4]diazepino[3,2,1-hi]indol-3-yl)-4H-1,2,4-triazole-3-carboxamide], the pIC50 in the data set on Jurkat FADD (−/−) Cells (setting [2]) is more than 8.00.

Consider `CCOC(=O)c1cccnc1-n1cc2c3c(cccc31)N(C)C(=O)C(NC(=O)c1nnc(Cc3ccccc3)[nH]1)C2` (racemic) [T-103], for which the pIC50 with Jurkat FADD (−/−) Cells (setting [2]) was 7.00 to 8.00.

As to `CN1C(=O)C(NC(=O)c2nnc(Cc3ccccc3)[nH]2)Cc2cn(CC(=O)O)c3cccc1c23` (racemic) [T-30, (±)-2-(3-(5-benzyl-4H-1,2,4-triazole-3-carboxamide)-1-methyl-2-oxo-1,2,3,4-tetrahydro-6H-azacyclo [4,3,2-cd]indol-6-yl)acetic Acid], the pIC50 in the data set with Jurkat FADD (−/−) Cells (setting [2]) was 6.00 to 7.00.
